We go through 15 compounds from patent US20240043420A1, “7-AZAINDOLE COMPOUNDS FOR INHIBITION OF BCR-ABL TYROSINE KINASES” (EnLiven Therapeutics, Inc., priority 2020, published 2024).

Where only a bound is given, the exact number is not on record here.

The subject of assay [1] is K562 cells. Put plainly: K562 cell proliferation assay (CellTiter-Glo). It is filed as cell-based. The settings on record: Homo sapiens, K562, 72 h, CellTiter-Glo viability, read-out: Cell Line (IC50, nM) K562. The procedure, abridged:
(§1)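 Cells in IMDM/10% FBS seeded at 2,000 (K562) or 1,500 (HL60) per well, exposed to serially diluted compounds for 72 h at 37 °C, 5% CO2. Viability by CellTiter-Glo luminescence, normalized between DMSO (high) and cell-free media (low) controls.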
A general note: ATP-based viability assays read luminescence as a measure of living cells.

In assay [2] the test system is HL60 cells. In words: HL60 cell proliferation assay (CellTiter-Glo). Format: cell-based. The note with it: Homo sapiens, HL-60, 72 h, CellTiter-Glo viability, read-out: Cell Line (IC50, nM) HL60. The procedure, abridged:
as §1

In assay [3] the target is T1, ABL1 (Homo sapiens, UniProt P00519).
T1 construct: purchased Carna Biosciences
Put plainly: Luminescence-based ABL kinase assay (ADP-Glo, 300 μM ATP). Format: biochemical. The gist of the method: (§2)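 ABL1 (3.325 nM in the enzyme solution) was preincubated with compound for 30 min at RT in HEPES pH 7.5 buffer with MgCl2, EGTA, DTT, BSA and Brij-35. Adding Peptide 2 and ATP (6 μM and 1.2 mM in the start solution) began a 90 min RT reaction. ADP-Glo luminescence gave % activity and IC50.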

In assay [4] the target is ABL1 (T315I) (Homo sapiens, UniProt P00519, T315I). Put plainly: Luminescence-based ABL kinase assay (ADP-Glo, 300 μM ATP), T315I mutant. Format: biochemical. The procedure, abridged:
as §2
(In ADP-Glo the light output rises with the ADP produced.)

Assay [5] deals with pCRKL in K562 cells. In words: pCRKL ELISA assay in K562 cells. It is filed as cell-based. The note with it: Homo sapiens, 1.5 h, 90 minutes incubation, read-out: PCRKL ELISA, Cell Line IC50 (nM) K562. As for the experimental part:
(§3) K562 or Ba/F3 ABL T315I cells (2.0*10^5 cells/100 μl/well) were seeded in 96 well (Corning, cat #3799). Compounds were dissolved in DMSO, serially diluted in DMSO and then were added, mixed, and incubated for 90 minutes at 37° C., 5% CO2. Following the 90-minute incubation, plates were centrifuged for 5 min at 3000 RPM and supernatant was removed from each well. Cells were washed 3 times with 150 μl PBS prior to addition of 100 μl cell RIPA lysis buffer (Boston BioProducts, cat #BP-115D) supplied with 1×complete ULTRA cocktail inhibitor (Roche, 05892791001) and 1×PhosSTOP Phosphatase Inhibitor Cocktail Tablets (Roche, 04906837001). Cells were incubated with lysis buffer for 1 hour at 4° C. prior to storage at −80 C.
(§4) A capture antibody able to detect phosphorylated and non-phosphorylated CRKL (R&D Systems, cat #AF5127) was added to Meso Scale Discovery (MSD) standard bind plates (MSD, cat #L15XA-3) at 5 ug/mL and incubated at 4° C. overnight. The next day, plates were washed with PBS+0.05% Tween20 (PBST) and 150 μl of 5% BSA blocking solution was added for 1 hour at room temperature with shaking. Plates were washed with PBST. Lysates were thawed and 30 μl of lysate was added to the MSD plates and incubated for 2 hours at room temperature with shaking. MSD plates were washed with PBST and 30 μl of a detection antibody that binds phosphorylated pCRKL (R&D Systems, cat #MAB6910) was added at 1 μg/mL to each well. Plates were incubated for 1 hour at room temperature with shaking. Plates were washed with PBST prior to addition of 30 μl of a sulfo tagged goat anti mouse detection antibody (MSD cat #R32AC-1). Plates were incubated for 1 hour at room temperature with shaking. Plates were washed with PBST prior to addition of 150 ul of 1×MSD read buffer T (MSD, cat 4R92TC-2). Electrochemiluminescence (ECLU) was read on an MSD plate reader (Meso Scale Discovery). The remaining activity by calculated as follows: 00 Relative activity=100×(ELCUsample−ECLULC)/(ECLUHC−ECLULC). The low and high controls (LC/HC) are generated from lysate from wells without cells or with cells treated with 0.1% DMSO, respectively. IC50 values were calculated using XLFit software using a nonlinear regression model with a sigmoidal dose response and are shown in Table 4 and Table 5 below.
For orientation: An ELISA detects its analyte on a solid surface through an enzyme-linked reagent.

The test system of assay [6] is pCRKL in Ba/F3 ABL1 (T315I) cells. Put plainly: pCRKL ELISA assay in Ba/F3 ABL T315I cells. It is filed as cell-based. The note with it: Mus musculus, BaF3, 1.5 h, 90 minutes incubation, read-out: pCRKL ELISA, Cell Line IC50 (nM) Ba/F3 ABL1 (T315I). As for the experimental part:
as §3, §4

On to `COc1ccnc(OC)c1-c1c[nH]c2nc(NC(=O)[C@@H]3C[C@@H]3F)ccc12` [Compound 75, (1S,2S)—N-[3-(2,4-dimethoxypyridin-3-yl)-1H-pyrrolo[2,3-b]pyridin-6-yl]-2-fluorocyclopropane-1-carboxamide], for which the IC50 was 54.6 nM in assay [1]; over 10000 nM in assay [2]; 15.1 nM in assay [3]; 17.6 nM in assay [4]; 86.3 nM in assay [5]; 162 nM in assay [6].
As for `COc1cc2ncsc2c(F)c1-c1c[nH]c2nc(NC(=O)[C@@H]3C[C@@H]3F)ccc12` [Compound 147, (1S,2S)-2-fluoro-N-(3-(7-fluoro-5-methoxybenzo[d]thiazol-6-yl)-1H-pyrrolo[2,3-b]pyridin-6-yl)cyclopropane-1-carboxamide], the IC50 was 16.1 nM in assay [1]; over 10000 nM in assay [2]; 5.54 nM in assay [3]; 1.71 nM in assay [4]; 35.7 nM in assay [5]; 35.7 nM in assay [6].
Take `COc1c(-c2c[nH]c3nc(NC(=O)[C@@H]4C[C@@H]4F)ccc23)cc(F)c2[nH]cnc12` [Compound 95, (1S,2S)-2-fluoro-N-(3-(7-fluoro-4-methoxy-1H-benzo[d]imidazol-5-yl)-1H-pyrrolo[2,3-b]pyridin-6-yl)cyclopropanecarboxamide]: the IC50 in assay [1] was 221 nM; in assay [2] it was over 10000 nM; in assay [3] it was 6.32 nM; in assay [4], 2.14 nM; in assay [5], 656 nM; in assay [6], 429 nM.
For the compound `COc1nc2ncsc2cc1-c1c[nH]c2nc(NC(=O)[C@@H]3C[C@@H]3F)ccc12` [Compound 146, (1S,2S)-2-fluoro-N-(3-[5-methoxy-[1,3]thiazolo[4,5-b]pyridin-6-yl]-1H-pyrrolo[2,3-b]pyridin-6-yl)cyclopropane-1-carboxamide], the IC50 in assay [1] was 9.9 nM; in assay [2], over 10000 nM; in assay [3], 3.74 nM; in assay [4], 14 nM; in assay [5], 32 nM; in assay [6], 112 nM.
For `COc1ncc(F)c(OC)c1-c1c[nH]c2nc(NC(=O)NCCN3CCN(C)CC3)ccc12` [Compound 116, 3-[3-(5-fluoro-2,4-dimethoxypyridin-3-yl)-1H-pyrrolo[2,3-b]pyridin-6-yl]-1-[2-(4-methylpiperazin-1-yl)ethyl]urea], the IC50 is 142 nM in assay [1]; over 10000 nM in assay [2]; 49.4 nM in assay [3]; 59.3 nM in assay [4]; 1060 nM in assay [6].
`COc1cccc(OC)c1-c1c[nH]c2nc(NC(=O)C3CC3CN3CCNCC3)ccc12` (single isomer, unassigned) [Example S150, Enantiomer 1, N-[3-(2,6-dimethoxyphenyl)-1H-pyrrolo[2,3-b]pyridin-6-yl]-2-(piperazin-1-ylmethyl)cyclopropane-1-carboxamide]: the IC50 amounted to 40.5 nM in assay [1]; 5.42 nM in assay [3]; 1.73 nM in assay [4]; 453 nM in assay [5]; 1460 nM in assay [6].
For the compound `COc1ccc(F)c(OC)c1-c1c[nH]c2nc(NC(=O)NCCN3CCN(C)CC3)ccc12` [Compound 145, 3-[3-(3-fluoro-2,6-dimethoxyphenyl)-1H-pyrrolo[2,3-b]pyridin-6-yl]-1-[2-(4-methylpiperazin-1-yl)ethyl]urea], the IC50 in assay [1] is 120 nM; in assay [2], over 10000 nM; in assay [3] it was 51.6 nM; in assay [4] it was 44.3 nM; in assay [5] it was 399 nM.
Consider `COc1cccc(OC)c1-c1c[nH]c2nc(NC(=O)NCCN3CCN(C)CC3)ccc12` [Compound 117, 3-[3-(2,6-dimethoxyphenyl)-1H-pyrrolo[2,3-b]pyridin-6-yl]-1-[2-(4-methylpiperazin-1-yl)ethyl]urea], for which the IC50 was 67.1 nM in assay [1]; over 10000 nM in assay [2]; 11.3 nM in assay [3]; 9.08 nM in assay [4]; 124 nM in assay [6].
Turning to `COc1ccccc1-c1n[nH]c2nc(NC(=O)C3CC3)ccc12` [Compound 44, N-[3-(2-methoxyphenyl)-1H-pyrazolo[3,4-b]pyridin-6-yl]cyclopropanecarboxamide], the IC50 in assay [1] is 151 nM; in assay [2], over 10000 nM; in assay [3], 23.1 nM; in assay [4] it was 39.8 nM; in assay [5], 275 nM.
Taken in the same sequence, the figures for `COc1nc2nc[nH]c2cc1-c1c[nH]c2nc(NC(=O)C3CC3)ccc12` [Compound 61, N-(3-[5-methoxy-1H-imidazo[4,5-b]pyridin-6-yl]-1H-pyrrolo[2,3-b]pyridin-6-yl)cyclopropanecarboxamide] were 36.9 nM, over 10000 nM, 3.28 nM, 5.08 nM and 88.4 nM.
With `COc1c(-c2c[nH]c3nc(NC(=O)[C@@H]4C[C@@H]4F)ccc23)cc2scnc2c1F` [Compound 133, (1S,2S)-2-fluoro-N-[3-(4-fluoro-5-methoxy-1,3-benzothiazol-6-yl)-1H-pyrrolo[2,3-b]pyridin-6-yl]cyclopropane-1-carboxamide], the IC50 stood at 9.36 nM in assay [1]; 4040 nM in assay [2]; 3.57 nM in assay [3]; 6.1 nM in assay [4]; 278 nM in assay [5].
Taken in the same sequence, the figures for `COc1cccc(OC)c1-c1c[nH]c2nc(NC(=O)NCCCN(C)C)ccc12` [Compound 131, 1-[3-(2,6-dimethoxyphenyl)-1H-pyrrolo[2,3-b]pyridin-6-yl]-3-[3-(dimethylamino)propyl]urea] were 83.3 nM, over 10000 nM, 42.7 nM, 28.1 nM and 272 nM.
For the compound `COc1cc2ncsc2cc1-c1c[nH]c2nc(NC(=O)[C@@H]3C[C@@H]3F)ccc12` [Compound 86, (1S,2S)-2-fluoro-N-(3-(5-methoxybenzo[d]thiazol-6-yl)-1H-pyrrolo[2,3-b]pyridin-6-yl)cyclopropane-1-carboxamide], the IC50 in assay [1] is 30.5 nM; in assay [2] it was over 10000 nM; in assay [3] it was 5.97 nM; in assay [4] it was 5.48 nM; in assay [6] it was 84.2 nM.
`COc1cccc(OC)c1-c1c[nH]c2nc(NC(=O)NCCN3CCNCC3)ccc12` [Compound 135, 3-[3-(2,6-dimethoxyphenyl)-1H-pyrrolo[2,3-b]pyridin-6-yl]-1-[2-(piperazin-1-yl)ethyl]urea]: the IC50 in assay [1] was 165 nM; in assay [2] it was over 10000 nM; in assay [3] it was 24.9 nM; in assay [4], 15.8 nM; in assay [5], 1210 nM.
Taken in the same sequence, the figures for `COc1cc2[nH]cnc2cc1-c1c[nH]c2nc(NC(=O)[C@@H]3C[C@@H]3F)ccc12` [Compound 49, (1S,2S)-2-fluoro-N-[3-(6-methoxy-1H-1,3-benzodiazol-5-yl)-1H-pyrrolo[2,3-b]pyridin-6-yl]cyclopropane-1-carboxamide] were 295 nM, over 10000 nM, 4.33 nM, 3.04 nM and 585 nM.
